SMILES strings stand for the structures. ≈ marks a conversion by molar mass, not a printed value. Calls of active or inactive are those of the source. No cut-off for these calls is given here.

13 molecules from ChEMBL document CHEMBL4732228, “The total synthesis of berberine and selected analogues, and their evaluation as amyloid beta aggregation inhibitors” (Eur J Med Chem, 2021) can be followed below.

Data set [1] in a line: Water solubility of the compound at 1 mg incubated for 12 hrs under shaking condition by UV-HPLC analysis. Type of data set: physicochemical.
Data set [2] is described as follows: Cytotoxicity against rat PC12 cells assessed as reduction in cell viability incubated for 24 hrs by WST-8 assay. The class given is cell-based, PC-12. Background: Tetrazolium dyes change colour on reduction, which living cells bring about.
Data set [3] deals with Amyloid-beta precursor protein (Homo sapiens) (UniProt P05067). Briefly: Inhibition of amyloid beta (1 to 42 ) (unknown origin) aggregation at 10 uM after 20 hrs by thioflavin-T fluorescence method relative to control.
Sequence of Amyloid-beta precursor protein (Homo sapiens) (P05067 whole entry): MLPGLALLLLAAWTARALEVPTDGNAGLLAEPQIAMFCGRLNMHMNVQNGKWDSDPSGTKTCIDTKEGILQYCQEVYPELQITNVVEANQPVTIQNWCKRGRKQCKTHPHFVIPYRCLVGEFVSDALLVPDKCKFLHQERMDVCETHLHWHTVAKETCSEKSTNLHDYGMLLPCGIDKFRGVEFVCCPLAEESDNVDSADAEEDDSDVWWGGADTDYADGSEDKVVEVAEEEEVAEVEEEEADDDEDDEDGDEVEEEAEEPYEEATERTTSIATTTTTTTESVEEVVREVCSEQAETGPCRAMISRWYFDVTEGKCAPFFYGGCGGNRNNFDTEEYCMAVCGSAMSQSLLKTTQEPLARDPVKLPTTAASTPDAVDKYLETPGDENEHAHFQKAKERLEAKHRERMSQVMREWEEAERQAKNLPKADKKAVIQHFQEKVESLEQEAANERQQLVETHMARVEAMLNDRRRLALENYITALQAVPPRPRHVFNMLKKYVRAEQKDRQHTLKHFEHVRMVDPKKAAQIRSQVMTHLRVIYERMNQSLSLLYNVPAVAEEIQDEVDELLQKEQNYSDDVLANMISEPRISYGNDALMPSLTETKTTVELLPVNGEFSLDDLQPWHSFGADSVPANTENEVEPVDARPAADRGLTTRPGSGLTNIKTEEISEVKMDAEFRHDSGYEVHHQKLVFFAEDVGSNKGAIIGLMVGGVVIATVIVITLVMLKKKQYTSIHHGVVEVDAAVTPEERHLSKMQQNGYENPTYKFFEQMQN
Data set [4] shares this target. Briefly: Inhibition of amyloid beta (1 to 42 ) (unknown origin) aggregation assessed as decrease in size of amyloid beta fibrils after 20 hrs by TEM analysis (reference value: 1 micrometer).
The target is the same in data set [5]. Briefly: Inhibition of amyloid beta (1 to 42 ) (unknown origin) aggregation assessed as appearance of nano-rod like amyloid beta fragments after 20 hrs by CD spectroscopic method.
Data set [6] shares this target. Briefly: Inhibition of amyloid beta (1 to 42 ) (unknown origin) aggregation assessed as decrease in diameter of aggregate after 20 hrs by dynamic light scattering analysis (reference value: 4.6 micrometer).
Data set [7] in a line: Ratio of compound solubility to curcumin solubility in water after 12 hrs by UV-HPLC analysis. The class given is physicochemical. To be noted: buffer.

In general, solubility (thermodynamic) refers to the concentration in solution at equilibrium with solid. One may read the CC50 as the concentration giving 50% cytotoxicity. With `COc1ccc2c(c1OC)CN1CCc3cc4c(cc3C1C2)OCO4` (configuration not stated) [TETRAHYDROBERBERINE], the solubility (thermodynamic) at 12 h in data set [1] worked out at 7 µM (≈ 2.38 µg/mL). Besides, the CC50 at 24 h in data set [2] is greater than 150 µM.

By inhibition is commonly meant how much of the control response was suppressed. As for `Oc1cc2c(cc1O)-c1cc3ccc(O)c(O)c3c[n+]1CC2.[Cl-]`, the inhibition in data set [3] was 72%. The molecule further yielded a solubility (thermodynamic) at 12 h in data set [1] of 2450 µM. In data set [2], the CC50 at 24 h came out at 9.8 µM. Besides, the Activity in data set [4] is 50 nm. The inhibition entry in data set [5] was “Active”.

`COc1c(O)ccc2c1CN1CCc3cc(O)c(O)cc3C1C2` (configuration not stated) displayed an inhibition in data set [3] of 61%. The solubility (thermodynamic) at 12 h in data set [1] was found to be 2370 µM (≈ 743 µg/mL). In data set [2], the cytotoxic concentration (CC50) at 24 h is 91 µM.

For `O=C1C=C(c2ccc(O)c(O)c2)OC(c2cc(O)ccc2O)C1` (configuration not stated), the inhibition in data set [3] was determined as 100%. Moreover, the thermodynamic solubility at 12 h in data set [1] stood at 2340 µM (≈ 735 µg/mL). Moreover, in data set [2], the cytotoxic concentration (CC50) at 24 h came to 114 µM.

The molecule `COc1c(O)ccc2cc3[n+](cc12)CCc1cc(O)c(O)cc1-3.[Cl-]` displayed an inhibition in data set [3] of 39%. The molecule further returned a thermodynamic solubility at 12 h in data set [1] of 1500 µM. Moreover, the CC50 at 24 h in data set [2] came to 39 µM.

`COc1ccc2cc3[n+](cc2c1OC)CCc1cc(O)c(O)cc1-3.[Cl-]`: the inhibition in data set [3] worked out at 27%. Besides, in data set [1], the solubility (thermodynamic) at 12 h came out at 2750 µM. Moreover, the CC50 at 24 h in data set [2] is greater than 150 µM.

On to `COc1ccc2cc[nH]c(=O)c2c1OC`, for which the thermodynamic solubility at 12 h in data set [1] was determined as 5.2 µM (≈ 1.07 µg/mL). For the same molecule, the CC50 at 24 h in data set [2] stood at 129 µM.

Turning to `COc1cc(/C=C/C(=O)CC(=O)/C=C/c2ccc(O)c(OC)c2)ccc1O` [CURCUMIN], the CC50 at 24 h in data set [2] was 44 µM.

On to `COc1ccc2cc3n(c(=O)c2c1OC)CCc1cc2c(cc1-3)OCO2` [OXYBERBERINE], for which the 50% cytotoxic concentration (CC50) at 24 h in data set [2] stood at 137 µM.

In turn, `CCOC(CNC(=O)c1cccc(OC)c1OC)OCC` showed a thermodynamic solubility at 12 h in data set [1] of 26 µM (≈ 7.73 µg/mL). The CC50 at 24 h in data set [2] is greater than 150 µM.

As to `Oc1cc2c(cc1O)C1Cc3ccc(O)c(O)c3CN1CC2` (configuration not stated), in data set [3], the inhibition was 78%. Also, the thermodynamic solubility at 12 h in data set [1] is greater than 3340 µM. For the same molecule, in data set [2], the CC50 at 24 h came out at 114 µM. The Activity in data set [6] is 1.3 nm; in data set [4], 50 nm. The inhibition entry in data set [5] was “Active”.

On to `COc1ccc2cc3[n+](cc2c1OC)CCc1cc2c(cc1-3)OCO2.[Cl-]` [BERBERINE CHLORIDE], for which the inhibition in data set [3] is 32%. In data set [1], this molecule had a thermodynamic solubility at 12 h of 1780 µM. The Ratio in data set [7] is 9000. Besides, in data set [2], the CC50 at 24 h was greater than 150 µM.

`COc1ccc2ccn(CCc3cc4c(cc3Br)OCO4)c(=O)c2c1OC` displayed a solubility (thermodynamic) at 12 h in data set [1] of 15 µM (≈ 6.48 µg/mL). Moreover, in data set [2], the CC50 at 24 h was 132 µM.
